12 compounds from ChEMBL document CHEMBL1149979, “1,3-Dithian-2-ylidene and thiazolidin-2-ylidene derivatives as a novel class of antimycotic agents” (1997) can be followed below.

One test deals with Cryptococcus neoformans. Description: In vitro minimum inhibitory concentration for antifungal activity against human pathogenic fungi Cryptococcus neoformans. The format is functional.
The test system of a further test is Sporothrix schenckii. Description: In vitro minimum inhibitory concentration for antifungal activity against human pathogenic fungi Sporothrix schenck ii. The format is functional.
Another test has as its system Trichophyton benhamiae. Briefly: In vitro minimum inhibitory concentration for antifungal activity against human pathogenic fungi Trichophyton mentagrophytes. It is filed as functional, Arthroderma benhamiae.
For another test, the system named is Candida albicans. Description: In vitro minimum inhibitory concentration for antifungal activity against human pathogenic fungi Candida albicans. The format is functional.
The test system of another test is Aspergillus fumigatus. Briefly: In vitro minimum inhibitory concentration for antifungal activity against human pathogenic fungi Aspergillus fumigatus. The format is functional.

SMILES strings stand for the structures. In brackets after ≈: the same amount, converted by molar mass. Bounds are passed on as bounds.

As usually defined, the MIC is the least concentration at which growth counts as inhibited. Lower therefore signals inhibition by little substance. For `CC1=CS/C(=C(/C#N)n2ccnc2)S1`, the MIC against Cryptococcus neoformans was more than 100 µg/mL; against Sporothrix schenckii, more than 100 µg/mL; against Trichophyton benhamiae, 12.5 µg/mL (≈ 56.5 µM); in the test on Candida albicans, more than 100 µg/mL; with Aspergillus fumigatus, 12.5 µg/mL (≈ 56.5 µM).
Consider `CC(=O)N1CCN(c2ccc(OC[C@H]3CO[C@](Cn4ccnc4)(c4ccc(Cl)cc4Cl)O3)cc2)CC1` [KETOCONAZOLE], for which the MIC against Cryptococcus neoformans was 0.3 µg/mL (≈ 0.565 µM); against Sporothrix schenckii, 0.1 µg/mL (≈ 0.188 µM); against Trichophyton benhamiae it was 25 µg/mL (≈ 47 µM); with Candida albicans, 0.1 µg/mL (≈ 0.188 µM); against Aspergillus fumigatus, 0.7 µg/mL (≈ 1.32 µM).
Regarding `O=C(/C(=C1/SCCN1c1ccc(Cl)cc1)n1ccnc1)c1ccc(Cl)cc1`, the MIC in the test on Cryptococcus neoformans, against Sporothrix schenckii, with Trichophyton benhamiae, against Candida albicans and against Aspergillus fumigatus was more than 100 µg/mL each time.
In the case of `CC1CCS/C(=C(/C#N)n2cnc3ccccc32)S1` (stereo not given), the MIC is more than 100 µg/mL with Cryptococcus neoformans; more than 100 µg/mL in the test with Sporothrix schenckii; more than 100 µg/mL against Trichophyton benhamiae; more than 100 µg/mL with Candida albicans; 50 µg/mL (≈ 174 µM) in the test with Aspergillus fumigatus.
In the case of `CC1CCS/C(=C(/C#N)n2ccnc2)S1` (stereo not given), the MIC is more than 100 µg/mL in the test on Cryptococcus neoformans; more than 100 µg/mL with Sporothrix schenckii; 3.12 µg/mL (≈ 13.1 µM) against Trichophyton benhamiae; 50 µg/mL (≈ 211 µM) in the test with Candida albicans; 0.19 µg/mL (≈ 0.8 µM) in the test with Aspergillus fumigatus.
Take `N#CC(=C1SCCCS1)n1ccnc1`: the MIC in the test with Cryptococcus neoformans is more than 100 µg/mL; in the test with Sporothrix schenckii it was more than 100 µg/mL; in the test on Trichophyton benhamiae, 25 µg/mL (≈ 112 µM); in the test on Candida albicans, 100 µg/mL (≈ 448 µM); with Aspergillus fumigatus it was 3.1 µg/mL (≈ 13.9 µM).
`CCOC(=O)C(=C1SCCCS1)n1ccnc1`: the MIC against Cryptococcus neoformans, in the test with Sporothrix schenckii, against Trichophyton benhamiae, against Candida albicans and in the test on Aspergillus fumigatus was more than 100 µg/mL in each case.
In the case of `O=C(C(=C1SCCCS1)n1ccnc1)c1ccc(Cl)cc1`, the MIC was more than 100 µg/mL against Cryptococcus neoformans; more than 100 µg/mL in the test with Sporothrix schenckii; 12.5 µg/mL (≈ 37.1 µM) against Trichophyton benhamiae; more than 100 µg/mL in the test with Candida albicans; 12.5 µg/mL (≈ 37.1 µM) against Aspergillus fumigatus.
For `CCOC(=O)/C(=C1/SCCC(C)S1)n1ccnc1` (stereo not given), the MIC was more than 100 µg/mL in the test on Cryptococcus neoformans; more than 100 µg/mL with Sporothrix schenckii; 25 µg/mL (≈ 87.9 µM) with Trichophyton benhamiae; more than 100 µg/mL with Candida albicans; 50 µg/mL (≈ 176 µM) with Aspergillus fumigatus.
Take `O=C(/C(=C1/SCCN1c1ccccc1)n1ccnc1)c1ccc(Cl)cc1`: the MIC against Cryptococcus neoformans, in the test with Sporothrix schenckii, in the test on Trichophyton benhamiae, in the test on Candida albicans and against Aspergillus fumigatus was more than 100 µg/mL each time.
Consider `CCN1CCS/C1=C(/C#N)n1ccnc1`, for which the MIC was more than 100 µg/mL with Cryptococcus neoformans; more than 100 µg/mL with Sporothrix schenckii; 25 µg/mL (≈ 113 µM) in the test on Trichophyton benhamiae; more than 100 µg/mL in the test with Candida albicans; 25 µg/mL (≈ 113 µM) against Aspergillus fumigatus.
Regarding `CCN1/C(=C(\C#N)n2ccnc2)SCC1C` (stereo not given), the MIC in the test with Cryptococcus neoformans is more than 100 µg/mL; against Sporothrix schenckii, more than 100 µg/mL; with Trichophyton benhamiae, 50 µg/mL (≈ 213 µM); against Candida albicans, more than 100 µg/mL; against Aspergillus fumigatus, 25 µg/mL (≈ 107 µM).
